Source: ChEMBL document CHEMBL6114992, “Design, synthesis, biological evaluation, and mechanism of action of new pyrazines as anticancer agents in vitro and in vivo” (Bioorg Med Chem, 2025)
pIC50: −log10 of the molar value.

Columns and labels:
Format in all cases: functional, cell-based
THP-1 = experiment: Antiproliferative activity against human THP-1 cells assessed as inhibition of cell growth incubated for 72 hrs by MTT assay; conditions: THP-1, 72 h
[1] = Antiproliferative activity against human SK-OV-3/Taxol cells assessed as inhibition of cell growth incubated for 72 hrs by MTT assay; conditions: SK-OV-3, 72 h
SK-OV-3 = experiment: Antiproliferative activity against human SK-OV-3 cells assessed as inhibition of cell growth incubated for 72 hrs by MTT assay; conditions: SK-OV-3, 72 h
KG-1 = experiment: Antiproliferative activity against human KG-1 cells assessed as inhibition of cell growth incubated for 72 hrs by MTT assay; conditions: KG-1, 72 h
U-937 = experiment: Antiproliferative activity against human U-937 cells assessed as inhibition of cell growth incubated for 72 hrs by MTT assay; conditions: U-937, 72 h

Structure (SMILES)	pIC50 (THP-1)	pIC50 [1]	pIC50 (SK-OV-3)	pIC50 (KG-1)	pIC50 (U-937)
CCc1nccnc1C(=O)/C=C/c1ccccc1F	5.45	5.44	5.47	5.51	5.65
CCc1nccnc1C(=O)/C=C/c1ccc(C)cc1	4.98	5.13	5.20	5.00	5.03
Cc1nccnc1C(=O)/C=C/c1ccc(Cl)cc1	4.77	4.93	5.01	4.98	5.53
CCc1nccnc1C(=O)/C=C/c1cccs1	4.99	4.96	5.00	4.71	5.00
CCc1nccnc1C(=O)/C=C/c1ccc(OC)cc1	5.22	5.01	4.96	4.64	5.28
CCc1nccnc1C(=O)/C=C/c1ccc(OC)c(OC)c1	5.08	5.10	5.17	5.02	5.10
O=C(/C=C/c1ccc(Cl)cc1Cl)c1cnccn1	5.18	< 4.30	< 4.30	5.18	5.08
Cc1nccnc1C(=O)/C=C/c1ccccc1N1CCOCC1	4.94	5.49	5.59	5.25	4.84
CCc1nccnc1C(=O)/C=C/c1ccccc1	4.62	5.27	5.34	5.43	5.70
CCc1nccnc1C(=O)/C=C/c1ccc(SC)cc1	5.57	5.09	5.10	5.03	5.37
CCc1nccnc1C(=O)/C=C/c1cccc(C#N)c1	6.01	5.54	5.60	5.41	6.21
O=C(/C=C/c1ccccc1N1CCOCC1)c1cnccn1	5.08	5.52	5.61	5.67	5.12
Cc1nccnc1C(=O)/C=C/c1ccc(-c2ccccc2)cc1	5.12	5.78	5.78	5.49	5.62
CCc1nccnc1C(=O)/C=C/c1ccc(Cl)cc1Cl	5.08	5.17	5.16	5.22	5.00
Cc1nccnc1C(=O)/C=C/c1ccc(C(C)(C)C)cc1	4.57	4.85	4.78	4.36	4.73
CC(C)(C)c1ccc(/C=C/C(=O)c2cnccn2)cc1	4.80	4.90	4.81	4.87	4.86
O=C(/C=C/c1csc2ccccc12)c1cnccn1	5.06	4.82	4.85	5.22	4.86
O=C(/C=C/c1cccc(Cl)c1Cl)c1cnccn1	4.91	< 4.30	< 4.30	4.26	4.72
CCc1nccnc1C(=O)/C=C/c1cccc(C)c1	5.11	5.25	5.34	4.99	5.16

Structure (SMILES)	pIC50 (THP-1)	pIC50 [1]	pIC50 (SK-OV-3)	pIC50 (KG-1)	pIC50 (U-937)
Cc1nccnc1C(=O)/C=C/c1ccc(C#N)cc1	6.14	5.33	5.35	6.00	5.68
O=C(/C=C/c1ccc(F)cc1)c1cnccn1	< 4.30	< 4.30	< 4.30	< 4.30	< 4.30
Cc1nccnc1C(=O)/C=C/c1cccc(Br)c1	5.79	5.84	5.79	7.10	5.80
O=C(/C=C/c1ccc(Cl)cc1)c1cnccn1	4.99	4.98	5.00	4.91	4.94
COc1ccc(/C=C/C(=O)c2cnccn2)cc1	4.99	4.68	4.66	5.06	4.82
CCc1nccnc1C(=O)/C=C/c1cccc(F)c1	5.21	5.20	5.37	5.46	6.18
O=C(/C=C/c1cccc([N+](=O)[O-])c1)c1cnccn1	5.28	< 4.30	< 4.30	4.99	5.10
O=C(/C=C/c1cccs1)c1cnccn1	5.00	< 4.30	< 4.30	4.92	5.21
Cc1nccnc1C(=O)/C=C/c1ccc[nH]1	5.24	5.27	5.32	5.15	5.21
CCc1nccnc1C(=O)/C=C/c1cc2ccccc2o1	4.89	4.79	4.76	4.65	4.76
O=C(/C=C/c1ccc(Br)cc1)c1cnccn1	4.63	< 4.30	< 4.30	4.69	< 4.30
O=C(/C=C/c1cc2c(cc1[N+](=O)[O-])OCO2)c1cnccn1	5.69	5.18	5.00	4.96	5.16
CCc1nccnc1C(=O)/C=C/c1cccc(Br)c1	5.17	5.33	5.49	5.03	5.44
O=C(/C=C/C=C/c1ccccc1)c1cnccn1	4.85	< 4.30	< 4.30	4.65	4.65
CC(/C=C/C(=O)c1nccnc1C)=C\c1ccccc1	5.34	5.19	5.14	5.32	5.67
Cc1cccc(/C=C/C(=O)c2cnccn2)c1	4.69	4.59	4.55	5.01	4.79
Cc1cccc(/C=C/C(=O)c2nccnc2C)c1	5.30	5.81	5.63	5.27	5.47
Cc1nccnc1C(=O)/C=C/c1ccc(S(C)(=O)=O)cc1	5.84	5.48	5.49	5.36	6.12
Cc1nccnc1C(=O)/C=C/c1ccccc1F	5.26	4.97	4.99	5.27	4.65

Structure (SMILES)	pIC50 (THP-1)	pIC50 [1]	pIC50 (SK-OV-3)	pIC50 (KG-1)	pIC50 (U-937)
Cc1ccccc1/C=C/C(=O)c1cnccn1	4.80	4.47	4.51	4.82	4.63
Cc1nccnc1C(=O)/C=C/c1cccc(Cl)c1	5.87	5.80	5.69	5.67	5.80
CCc1nccnc1C(=O)/C=C/c1ccc(C(C)(C)C)cc1	4.99	4.91	4.95	4.65	4.82
CCc1nccnc1C(=O)/C=C/c1ccc(Br)cc1	5.27	5.23	5.41	5.03	5.71
O=C(/C=C/c1ccc2c(c1)OC(F)(F)O2)c1cnccn1	4.69	< 4.30	< 4.30	4.76	4.84
O=C(/C=C/c1ccccc1)c1cnccn1	4.81	< 4.30	< 4.30	4.97	5.09
Cc1nccnc1C(=O)/C=C/c1ccccc1Br	5.71	5.57	5.49	5.56	5.91
Cc1nccnc1C(=O)/C=C/c1ccccn1	5.21	4.95	5.00	5.27	5.18
CCc1nccnc1C(=O)/C=C/c1ccc(F)cc1F	5.24	5.10	5.28	4.59	5.10
N#Cc1cccc(/C=C/C(=O)c2cnccn2)c1	5.01	4.86	4.97	5.23	5.13
O=C(/C=C/c1cc2ccccc2o1)c1cnccn1	4.87	< 4.30	< 4.30	5.02	4.97
CCc1nccnc1C(=O)/C=C/c1cccc([N+](=O)[O-])c1	5.81	5.57	5.46	5.67	5.80
CCc1nccnc1C(=O)/C=C/C=C/c1ccccc1	4.67	4.47	4.48	4.72	5.11
Cc1nccnc1C(=O)/C=C/c1cc2ccccc2o1	5.72	5.76	5.33	5.48	5.53
O=C(/C=C/c1ccccc1Br)c1cnccn1	4.81	4.85	4.92	5.05	4.94
O=C(/C=C/c1ccc(-c2ccccc2)cc1)c1cnccn1	< 4.30	4.79	4.78	< 4.30	4.50
O=C(/C=C/c1ccccc1Cl)c1cnccn1	4.93	4.99	5.14	5.08	4.94
CCc1nccnc1C(=O)/C=C/c1ccc(S(C)(=O)=O)cc1	5.86	5.21	5.47	5.44	5.71
CC[C@@]1(O)C(=O)OCc2c1cc1n(c2=O)Cc2cc3ccccc3nc2-1 [CAMPTOTHECIN]			5.59		
